Measurements as given in PubChem BioAssay AID1918996 (Molecular Pharmacology Branch, DTP, NCI, 2023).

Tested on: 349418-098-R-PDC complex spheroid growth
Test: Anticancer human tumor 349418-098-R-PDC patient-derived lung adenocarcinoma cell line growth inhibition [AhR]
Conditions: for IC50: curve of first compound; for viability, T/C: stronger effect = lower value
In short: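 Complex tumor spheroids co-cultured with HUVEC and human MSC stroma; AhR antagonists tested in combination with standard-of-care and investigational agents. Top concentration at or near clinical Cmax (else 10 microM), half-log dilutions; growth expressed as percent test/control.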

[1] = second compound 0.1 µM, first compound 0.0316 µM
[2] = second compound 0.1 µM, first compound 0.1 µM
[3] = second compound 0.1 µM, first compound 0.316 µM
[4] = second compound 0.1 µM, first compound 1 µM
[5] = second compound 0.1 µM, first compound 3.16 µM
[6] = second compound 0.1 µM, first compound 10 µM
[7] = second compound 0.316 µM, first compound 0.0316 µM
[8] = second compound 0.316 µM, first compound 0.1 µM
[9] = second compound 0.316 µM, first compound 0.316 µM
[10] = second compound 0.316 µM, first compound 1 µM
[11] = second compound 0.316 µM, first compound 3.16 µM
[12] = second compound 0.316 µM, first compound 10 µM
[13] = second compound 1 µM, first compound 0.0316 µM
[14] = second compound 1 µM, first compound 0.1 µM
[15] = second compound 1 µM, first compound 0.316 µM
[16] = second compound 1 µM, first compound 1 µM
[17] = second compound 1 µM, first compound 3.16 µM
[18] = second compound 1 µM, first compound 10 µM
[19] = second compound 3.16 µM, first compound 0.0316 µM
[20] = second compound 3.16 µM, first compound 0.1 µM
[21] = second compound 3.16 µM, first compound 0.316 µM
[22] = second compound 3.16 µM, first compound 1 µM
[23] = second compound 3.16 µM, first compound 3.16 µM
[24] = second compound 3.16 µM, first compound 10 µM
[25] = second compound 10 µM, first compound 0.0316 µM
[26] = second compound 10 µM, first compound 0.1 µM
[27] = second compound 10 µM, first compound 0.316 µM
[28] = second compound 10 µM, first compound 1 µM
[29] = second compound 10 µM, first compound 3.16 µM
[30] = second compound 10 µM, first compound 10 µM
[31] = second compound 0.1 µM, first compound 0.00316 µM
[32] = second compound 0.1 µM, first compound 0.01 µM
[33] = second compound 0.316 µM, first compound 0.00316 µM
[34] = second compound 0.316 µM, first compound 0.01 µM
[35] = second compound 1 µM, first compound 0.00316 µM
[36] = second compound 1 µM, first compound 0.01 µM
[37] = second compound 3.16 µM, first compound 0.00316 µM
[38] = second compound 3.16 µM, first compound 0.01 µM
[39] = second compound 10 µM, first compound 0.00316 µM
[40] = second compound 10 µM, first compound 0.01 µM
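Note: spheroids exposed to agents for seven days before luminescence viability read.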
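Throughout, for viability, T/C: spheroids also contain HUVEC endothelial cells and human MSC stroma.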

Compound | IC50 (second compound 0.1 µM) [µM] | IC50 (second compound 0.316 µM) [µM] | IC50 (second compound 1 µM) [µM] | IC50 (second compound 3.16 µM) [µM] | IC50 (second compound 10 µM) [µM] | viability, T/C [1] [%] | viability, T/C [2] [%] | viability, T/C [3] [%] | viability, T/C [4] [%] | viability, T/C [7] [%] | viability, T/C [8] [%] | viability, T/C [9] [%] | viability, T/C [10] [%] | viability, T/C [13] [%] | viability, T/C [14] [%] | viability, T/C [15] [%] | viability, T/C [19] [%] | viability, T/C [20] [%] | viability, T/C [25] [%] | viability, T/C [26] [%] | other results
CC(C)c1c(-c2ccccc2)nc2c(C#N)c[nH]n2c1=O + Cc1ccccc1N=Nc1ccc(NC(=O)c2ccnn2C)c(C)c1 | > 10 | > 10 | > 10 | > 10 | > 10 | 79.3 | 85.6 | 95.2 | 98 | 88.2 | 87.3 | 86.2 | 88.7 | 91.6 | 79.8 | 88.8 | 81.7 | 89.9 | 47.5 | 58.1 | viability, T/C [5]: 78%; viability, T/C [6]: 76.5%; viability, T/C [11]: 80%; viability, T/C [12]: 84.7%; viability, T/C [16]: 91.4%; viability, T/C [17]: 79.9%; viability, T/C [18]: 58.7%; viability, T/C [21]: 85.2%; viability, T/C [22]: 85.7%; viability, T/C [23]: 53.9%; viability, T/C [24]: 62.4%; viability, T/C [27]: 59.1%; viability, T/C [28]: 50.4%; viability, T/C [29]: 44.7%; viability, T/C [30]: 57.1%
CC[C@@]1(O)C(=O)OCc2c1cc1n(c2=O)Cc2cc3c(CN(C)C)c(O)ccc3nc2-1 + Cc1cncc(-c2nc(NCCc3c[nH]c4ccccc34)c3ncn(C(C)C)c3n2)c1 | 0.0153 | 0.0141 | 0.0144 | < 0.000316 | < 0.000316 | 29.4 | 6.14 |  |  | 23.8 | 6.37 |  |  | 24.5 | 7.22 |  | 10.1 | 5.91 | 1.32 | 1.19 | viability, T/C (second compound 0.1 µM, first compound 0.000316 µM): 102%; viability, T/C (second compound 0.1 µM, first compound 0.001 µM): 93.9%; viability, T/C [31]: 91.6%; viability, T/C [32]: 60.7%; viability, T/C (second compound 0.316 µM, first compound 0.000316 µM): 87.3%; viability, T/C (second compound 0.316 µM, first compound 0.001 µM): 94%; viability, T/C [33]: 86.4%; viability, T/C [34]: 60.3%; viability, T/C (second compound 1 µM, first compound 0.000316 µM): 90.6%; viability, T/C (second compound 1 µM, first compound 0.001 µM): 93.5%; viability, T/C [35]: 84.2%; viability, T/C [36]: 62%; viability, T/C (second compound 3.16 µM, first compound 0.000316 µM): 24.8%; viability, T/C (second compound 3.16 µM, first compound 0.001 µM): 19.5%; viability, T/C [37]: 21%; viability, T/C [38]: 14.4%; viability, T/C (second compound 10 µM, first compound 0.000316 µM): 1.41%; viability, T/C (second compound 10 µM, first compound 0.001 µM): 1.47%; viability, T/C [39]: 1.56%; viability, T/C [40]: 1.49%
COc1cc(C2c3cc4c(cc3C(OC3OC5COC(C)OC5C(O)C3O)C3COC(=O)C23)OCO4)cc(OC)c1O (stereo not given) + Cc1cncc(-c2nc(NCCc3c[nH]c4ccccc34)c3ncn(C(C)C)c3n2)c1 | 0.476 | 0.384 | 0.426 | < 0.0316 | < 0.0316 | 97.8 | 99 | 62.4 | 24.9 | 103 | 86.5 | 58.3 | 19.1 | 93.3 | 90.9 | 59.6 | 24 | 19.2 | 1.7 | 1.71 | viability, T/C [5]: 9.98%; viability, T/C [6]: 4.8%; viability, T/C [11]: 8.45%; viability, T/C [12]: 5.08%; viability, T/C [16]: 20.9%; viability, T/C [17]: 9.01%; viability, T/C [18]: 6.23%; viability, T/C [21]: 14.8%; viability, T/C [22]: 10.2%; viability, T/C [23]: 7.3%; viability, T/C [24]: 4.57%; viability, T/C [27]: 1.45%; viability, T/C [28]: 1.18%; viability, T/C [29]: 1.04%; viability, T/C [30]: 1.29%
COc1cccc2c1C(=O)c1c(O)c3c(c(O)c1C2=O)CC(O)(C(=O)CO)CC3OC1CC(N)C(O)C(C)O1 (stereo not given) + Cc1cncc(-c2nc(NCCc3c[nH]c4ccccc34)c3ncn(C(C)C)c3n2)c1 | < 0.0316 | < 0.0316 | < 0.0316 | < 0.0316 | < 0.0316 | 12.1 | 6.61 | 1.44 | 0.29 | 11.5 | 6.41 | 1.16 | 0.42 | 10.5 | 4.41 | 1.26 | 4.44 | 3.03 | 0.79 | 0.69 | viability, T/C [5]: 2.68%; viability, T/C [6]: 3.48%; viability, T/C [11]: 2.47%; viability, T/C [12]: 4%; viability, T/C [16]: 0.31%; viability, T/C [17]: 2.61%; viability, T/C [18]: 3.54%; viability, T/C [21]: 0.5%; viability, T/C [22]: 0.32%; viability, T/C [23]: 2.14%; viability, T/C [24]: 3.34%; viability, T/C [27]: 0.23%; viability, T/C [28]: 0.5%; viability, T/C [29]: 1.35%; viability, T/C [30]: 1.99%
Nc1ccn(C2OC(CO)C(O)C2(F)F)c(=O)n1 (stereo not given) + Cc1cncc(-c2nc(NCCc3c[nH]c4ccccc34)c3ncn(C(C)C)c3n2)c1 | < 0.0316 | < 0.0316 | < 0.0316 | < 0.0316 | < 0.0316 | 5.21 | 5.33 | 4.29 | 4.06 | 5.26 | 5.35 | 4.46 | 4.46 | 5.67 | 5.73 | 5.73 | 8.15 | 6.5 | 4.66 | 3.51 | viability, T/C [5]: 3.79%; viability, T/C [6]: 3.29%; viability, T/C [11]: 3.84%; viability, T/C [12]: 3.1%; viability, T/C [16]: 4.6%; viability, T/C [17]: 6.45%; viability, T/C [18]: 3.8%; viability, T/C [21]: 5.64%; viability, T/C [22]: 4.25%; viability, T/C [23]: 4.89%; viability, T/C [24]: 3.39%; viability, T/C [27]: 3.29%; viability, T/C [28]: 4.08%; viability, T/C [29]: 2.99%; viability, T/C [30]: 2.51%
Nc1ncn(C2CC(O)C(CO)O2)c(=O)n1 (stereo not given) + Cc1cncc(-c2nc(NCCc3c[nH]c4ccccc34)c3ncn(C(C)C)c3n2)c1 | 0.177 | 0.221 | 0.305 | < 0.00316 | < 0.00316 | 80.3 | 59.9 | 40.9 | 29.1 | 83.2 | 69.9 | 40.7 | 25.7 | 82.7 | 68.6 | 50.1 | 21.9 | 17.4 | 1.75 | 1.51 | viability, T/C [31]: 88.5%; viability, T/C [32]: 97.9%; viability, T/C [33]: 93%; viability, T/C [34]: 88.3%; viability, T/C [35]: 84.6%; viability, T/C [36]: 87.2%; viability, T/C [16]: 34.3%; viability, T/C [37]: 20.6%; viability, T/C [38]: 21.6%; viability, T/C [21]: 17.7%; viability, T/C [22]: 16.2%; viability, T/C [39]: 1.51%; viability, T/C [40]: 1.55%; viability, T/C [27]: 1.2%; viability, T/C [28]: 1.31%
